# From PubChem BioAssay AID258 (DTP/NCI, 2004)
# Where “and” joins values, the source holds several entries; their conditions need not be identical. Equal entries are not always repeated. Inconclusive results and toxic doses are left out.
# Tested on: CD2F1 mice, L1210 leukemia sc, survival T/C
# Experiment: NCI In Vivo Anticancer Drug Screen. Data for tumor model L1210 Leukemia (subcutaneous) in CD2F1 (CDF1) mice
# Details: endpoint: median survival time, higher = longer survival
# Outline: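 T/C ratio: treated-group survival or tumor size over vehicle-control group measurement, in mice carrying transplanted tumors.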
smiles,measurement,setting,value
O=C(O)CCCc1ccc(N(CCCl)CCCl)cc1,T/C,"dose: 1.5 mg/kg/injection, schedule: Q01DX009 (ip), vehicle: saline with Tween-80",98 % of control
same,T/C,"dose: 3.0 mg/kg/injection, schedule: Q01DX009 (ip), vehicle: saline with Tween-80",107 % of control
same,T/C,"dose: 6.0 mg/kg/injection, schedule: Q01DX009 (ip), vehicle: saline with Tween-80",107 % of control
same,T/C,"dose: 12.0 mg/kg/injection, schedule: Q01DX009 (ip), vehicle: saline with Tween-80",123 % of control
COc1ccc2[nH]c3ccc4cc[n+](CCN5CCC(C6CCN(CC[n+]7ccc8ccc9[nH]c%10ccc(OC)cc%10c9c8c7)CC6)CC5)cc4c3c2c1,T/C,"dose: 6.9 mg/kg/injection, schedule: Q01DX009 (ip), vehicle: water",104 % of control
same,T/C,"dose: 11.5 mg/kg/injection, schedule: Q01DX009 (ip), vehicle: water",107 % of control
same,T/C,"dose: 12.5 mg/kg/injection, schedule: Q01DX009 (ip), vehicle: Klucel (hydroxypropylcellulose) (HPC)",204 % of control and 93 % of control
same,T/C,"dose: 32.0 mg/kg/injection, schedule: Q01DX009 (ip), vehicle: water",107 % of control
same,T/C,"dose: 50.0 mg/kg/injection, schedule: Q01DX009 (ip), vehicle: Klucel (hydroxypropylcellulose) (HPC)",340 % of control
CC/C(=C(/CC)c1ccc(O)cc1)c1ccc(O)cc1,T/C,"dose: 12.5 mg/kg/injection, schedule: Q01DX009 (ip), vehicle: saline with Tween-80",103 % of control
same,T/C,"dose: 12.5 mg/kg/injection, schedule: Q01DX009 (sc), vehicle: saline with Tween-80",98 % of control
same,T/C,"dose: 25.0 mg/kg/injection, schedule: Q01DX009 (ip), vehicle: saline with Tween-80",104 % of control
same,T/C,"dose: 25.0 mg/kg/injection, schedule: Q01DX009 (sc), vehicle: saline with Tween-80",98 % of control and 100 % of control
same,T/C,"dose: 50.0 mg/kg/injection, schedule: Q01DX009 (ip), vehicle: saline with Tween-80",100 % of control
same,T/C,"dose: 50.0 mg/kg/injection, schedule: Q01DX009 (sc), vehicle: saline with Tween-80",102 % of control
same,T/C,"dose: 100.0 mg/kg/injection, schedule: Q01DX009 (ip), vehicle: saline with Tween-80",97 % of control
same,T/C,"dose: 100.0 mg/kg/injection, schedule: Q01DX009 (sc), vehicle: saline with Tween-80",96 % of control and 97 % of control
same,T/C,"dose: 200.0 mg/kg/injection, schedule: Q01DX009 (ip), vehicle: saline with Tween-80",96 % of control
same,T/C,"dose: 200.0 mg/kg/injection, schedule: Q01DX009 (sc), vehicle: saline with Tween-80",106 % of control
same,T/C,"dose: 400.0 mg/kg/injection, schedule: Q01DX009 (sc), vehicle: saline with Tween-80",101 % of control
Nc1ncn(C2OC(CO)C(O)C2O)c(=O)n1 (stereo unspecified),T/C,"dose: 0.2 mg/kg/injection, schedule: Q01DX009 (ip), vehicle: saline",97 % of control
same,T/C,"dose: 0.2 mg/kg/injection, schedule: Q01DX009 (sc), vehicle: saline",102 % of control
same,T/C,"dose: 0.4 mg/kg/injection, schedule: Q01DX009 (ip), vehicle: saline",113 % of control
same,T/C,"dose: 0.4 mg/kg/injection, schedule: Q01DX009 (sc), vehicle: saline",115 % of control and 119 % of control
same,T/C,"dose: 0.8 mg/kg/injection, schedule: Q01DX009 (sc), vehicle: saline",120 % of control
same,T/C,"dose: 1.07 mg/kg/injection, schedule: Q01DX009 (sc), vehicle: saline",158 % of control
same,T/C,"dose: 1.6 mg/kg/injection, schedule: Q01DX009 (ip), vehicle: saline",150 % of control
same,T/C,"dose: 2.1 mg/kg/injection, schedule: Q01DX009 (ip), vehicle: saline",178 % of control
same,T/C,"dose: 2.1 mg/kg/injection, schedule: Q01DX009 (sc), vehicle: saline",187 % of control
same,T/C,"dose: 7.2 mg/kg/injection, schedule: Q01DX009 (ip), vehicle: saline",206 % of control and 88 % of control
same,T/C,"dose: 9.6 mg/kg/injection, schedule: Q01DX009 (ip), vehicle: saline",113 % of control
same,T/C,"dose: 28.8 mg/kg/injection, schedule: Q01DX009 (sc), vehicle: saline",106 % of control
Nc1n[nH]c(N)n1,T/C,"dose: 259.0 mg/kg/injection, schedule: Q01DX Z (sc), vehicle: water",100 % of control
same,T/C,"dose: 432.0 mg/kg/injection, schedule: Q01DX Z (sc), vehicle: water",113 % of control
same,T/C,"dose: 720.0 mg/kg/injection, schedule: Q01DX Z (sc), vehicle: water",118 % of control
same,T/C,"dose: 1200.0 mg/kg/injection, schedule: Q01DX Z (sc), vehicle: water",122 % of control
